Data taken from paper PMC8754229 (Journal of Virology, 2022).

Key:
[1] = statement in Discussion, no test described, ref not given; cited from earlier work
[2] = target: SARS-CoV-2 M^pro (Severe acute respiratory syndrome coronavirus 2, UniProt P0DTD1); format: biochemical

Row | Compound | Cytotoxicity (in words) [1] | Inhibition against M^pro (in words) [2]
1 | CC(C)=CC[C@@H](O)C1=CC(=O)c2c(O)ccc(O)c2C1=O [Shikonin] | strong cytotoxicity | –
2 | CC(=O)O[C@H]1[C@H](OCCc2ccc(O)c(O)c2)O[C@H](CO[C@@H]2O[C@H](CO)[C@@H](O)[C@H](O)[C@H]2O)[C@@H](OC(=O)/C=C/c2ccc(O)c(O)c2)[C@@H]1OC[C@@H]1O[C@@H](C)[C@H](O)[C@@H](O)[C@H]1O [tubuloside A] | – | none of them showed potent inhibition
3 | maltopentaose | – | none of them showed potent inhibition
